Source: patent US20110165115A1, “SYNERGISTIC ATTRACTANTS FOR PESTIFEROUS SOCIAL INSECTS” (STERLING INTERNATIONAL INC., priority 2010, published 2011)

Experiments:
[1] = tested on: V. pensylvanica; details: background; cited from earlier work
[2] = tested on: V. vidua; details: background; cited from earlier work
[3] = tested on: P. aurifer; assay: Field trapping Experiment 1, Rescue W•H•Y traps; type: in vivo, Polistes aurifer; details: Exp 1; HIPV added to WHY attractant in the top chamber, or WHY alone
Experimental: (§1) Three field trapping experiments were carried out during late July to early August 2009, in residential and woody areas around Spokane, Wash., USA, using the newly marketed Rescue® W•H•Y traps (www.rescue.com). As used herein, the W•H•Y trap is a trap in accordance with the description of United States Patent Application Publication No. 2009/0151228. The W•H•Y trap has a top chamber and a bottom chamber. The top chamber is baited with two attractants—one of which is a solid contained in a vial (2-methyl-1-butanol) and the other a liquid mixed with water (acetic acid), herein referred to as the W•H•Y top attractant. The bottom chamber is baited with a liquid attractant (heptyl butyrate) poured onto a cotton pad, herein referred to as the W•H•Y bottom attractant. Separation of the top and bottom attractants (otherwise antagonistic to each other when released from the same chamber) in two chambers was a design feature of this trap and creates two focal attraction sources from one trap for different species of wasps, hornets, and yellowjackets. Traps were hung 1.5-2.0 m above the ground on either the fence or tree branches ca. 5 m apart within each trap line. For each trapping experiment, six sets of traps were deployed with their initial trap positions within each set being randomized. To minimize positional effects and obtain more replications, wasp collections and trap re-randomization were carried out when ≧10-20 wasps were caught in the best trap. Each replicate lasted several days depending on wasp flight activity. Captured wasps were removed from the traps and kept in the zip-bags before taking back to the laboratory for recording of the species, gender status, and catch.
(§2) Experiment 3 (Aug. 5-13, 2009) was conducted to determine the potential behavioral activity of different doses of (E)-4,8-dimethyl-1,3,7-nonatriene alone. The individual (or different doses) HIPVs were loaded into either polyethylene bags or centrifuge tube type of dispensers, and released from the top of the W•H•Y trap chamber. W•H•Y trap attractants (both top and bottom or top only) alone and water (top chamber only) were included in the test as positive and blank controls, respectively. The dispenser types, loading and release rates of the tested semiochemicals are described in Tables 1, 2 and 3.
(§3) Trap catch data were converted to proportion (P) of total captured wasps within each replicate. Data were then transformed by arcsin√P to meet the assumptions of normality and homogeneity of variances for ANOVA. Means were compared by ANOVA followed by the Ryan-Einot-Gabriel-Welsh (REGW) multiple Q test (SPSS 16.0 for Windows) at α=0.05.

[4] = tested on: V. pensylvanica; assay: Field trapping Experiment 1, Rescue W•H•Y traps; type: in vivo, Vespula pensylvanica; details: Exp 1; HIPV added to WHY attractant in the top chamber, or WHY alone
Experimental: as §1, §2, §3

[5] = tested on: V. acadica; assay: Field trapping Experiment 1, Rescue W•H•Y traps; type: in vivo, Vespula acadica; details: Exp 1; HIPV added to WHY attractant in the top chamber, or WHY alone
Experimental: as §1, §2, §3

[6] = tested on: V. vulgaris; assay: Field trapping Experiment 1, Rescue W•H•Y traps; type: in vivo, Vespula vulgaris; details: Exp 1; HIPV added to WHY attractant in the top chamber, or WHY alone
Experimental: as §1, §2, §3

[7] = tested on: yellowjackets; assay: Field trapping Experiment 1, top chamber catches; type: in vivo; details: Exp 1; HIPV combined with W•H•Y attractant (acetic acid and 2-methyl-1-butanol) in the top chamber
Experimental: as §1
Experiment 3 (Aug. 5-13, 2009) was conducted to determine the potential behavioral activity of different doses of (E)-4,8-dimethyl-1,3,7-nonatriene alone. The individual (or different doses) HIPVs were loaded into either polyethylene bags or centrifuge tube type of dispensers, and released from the top of the W•H•Y trap chamber. […]

[8] = tested on: D. arenaria; assay: Field trapping Experiment 1, Rescue W•H•Y traps; type: in vivo, Dolichovespula arenaria; details: Exp 1; HIPV added to WHY attractant in the top chamber, or WHY alone
Experimental: as §1
(§4) Experiment 1 (Jul. 22-30, 2009) tested ten synthetic HIPV candidates [(E)-2-hexenal, (Z)-3-hexen-1-ol, (Z)-3-hexenyl acetate, cis-ocimene, linalool, methyl salicylate, geranyl acetate, trans-β-caryophyllene, trans-β-farnesene and (E)-4,8-dimethyl-1,3,7-nonatriene], including several paper wasp EAD-active compounds (see FIG. 2 for details), to determine their potential synergistic effect on the Rescue® W•H•Y trap attractants to paper wasps, yellowjackets, and hornets. Experiment 2 (Aug. 5-13, 2009) tested behavioral responses of the paper wasps and yellowjackets to the Rescue® W•H•Y trap attractants (top attractants only) and its combination with (E)-4,8-dimethyl-1,3,7-nonatriene, one of the EAD-active and behaviorally significant HIPVs, in a dose-response fashion. Experiment 3 (Aug. 5-13, 2009) was conducted to determine the potential behavioral activity of different doses of (E)-4,8-dimethyl-1,3,7-nonatriene alone. The individual (or different doses) HIPVs were loaded into either polyethylene bags or centrifuge tube type of dispensers, and released from the top of the W•H•Y trap chamber. W•H•Y trap attractants (both top and bottom or top only) alone and water (top chamber only) were included in the test as positive and blank controls, respectively. The dispenser types, loading and release rates of the tested semiochemicals are described in Tables 1, 2 and 3.
as §3

[9] = tested on: P. dominulus; assay: Field trapping Experiment 1, Rescue W•H•Y traps; type: in vivo, Polistes dominulus; details: Exp 1; HIPV added to WHY attractant in the top chamber, or WHY alone
Experimental: as §1, §2, §3

[10] = tested on: V. atropilosa; type: in vivo, Vespula atropilosa; details: Exp 1; HIPV added to WHY attractant in the top chamber, or WHY alone
Experimental: as §1, with “catch. […]” for “catch.”
as §3

[11] = tested on: Polistes dominulus worker antennae; assay: GC-EAD of cherry branch aeration samples; details: aeration of severely damaged cherry branches; at current release rates
Experimental: Lapin cherry branches with severely damaged cherries and leaves and undamaged or slightly damaged branches were collected from a cherry orchard at Creston, Canada, on Jul. 29, 2009, and were transported to the Sterling International, Inc. lab (Spokane, Wash.) on the same day and kept at 4° C. before aerations. Headspace volatiles from the cherry branches (damaged or undamaged) were sampled by a battery operated pump and a high density polyacetate oven bag (48.2×59.6 cm Reynolds® Oven Bag; Richmond, Va., USA) enclosure with one activated charcoal filter tube in the air inlet, on Jul. 30, 2009. The volatiles in the enclosure were trapped on one Porapak Q tube (50/80 mesh; 30 mg in Teflon tube: 3 mm×35 mm) for 2.5 hr (airflow 300 ml/min) and extracted with 1 ml redistilled pentane. Aeration samples of the cherry branches (damaged or undamaged/slightly damaged) were injected (3 μl) splitless into a Varian CP-3800 GC equipped with a polar column (HP-INNOWax; 30 m×0.53 mm×1.0 μm film thickness; […] Helium was used as the carrier gas, and the injector and detector temperatures were 250° C. and 300° C., respectively. Column temperature was 50° C. for 1 min, rising to 240° C. at 10° C./min, and then held for 10 min. The outlet for the EAD was held in a humidified air stream flowing at 0.5 m/sec over the antennal preparation. EAD recordings were made using silver wire-glass capillary electrodes filled with Beadle-Ephrussi Ringer on freshly cut antennae. The antennal signals were stored and analyzed on a PC equipped with a serial IDAC interface box and the program EAD ver. 2.5 (Syntech, Hilversum, The Netherlands). […] (See FIG. 2.) The same chemicals were also tested on beneficial insect antennae from Chrysopa oculata, Myrmeleon crudelis, Podisus maculiventris, and Hippodarnia convergens. (See […] active peaks in the aeration samples were identified by GC-MS on an HP 6890 GC series coupled with an HP 5973 Mass Selective Detector using the same type of GC column and conditions as described above. Compounds were identified by comparison of retention times with those of authentic standards and with mass spectra of standards.

[12] = tested on: V. consobrina; type: in vivo, Vespula consobrina; details: Exp 1; HIPV added to WHY attractant in the top chamber, or WHY alone
Experimental: as §1, with “catch. […]” for “catch.”
as §3

[13] = tested on: D. maculata; assay: Field trapping Experiment 1, Rescue W•H•Y traps; type: in vivo, Dolichovespula maculata; details: Exp 1; HIPV added to WHY attractant in the top chamber, or WHY alone
Experimental: as §1, §4, §3

[14] = tested on: yellowjackets occurring in the Eastern United States, hornets and paper wasps; details: background; cited from earlier work
[15] = tested on: P. dominulus workers antennae; assay: GC-EAD of synthetic mixture of known HIPVs; parameters: species or system Polistes dominulus; details: 100 ng/μl each in hexane
Experimental: Aeration samples of the cherry branches (damaged or undamaged/slightly damaged) were injected (3 μl) splitless into a Varian CP-3800 GC equipped with a polar column (HP-INNOWax; 30 m×0.53 mm×1.0 μm film thickness; Agilent Technologies, Wilmington, Del., USA) and a 1:1 effluent splitter that allowed simultaneous flame ionization detection (FID) and electroantennographic detection (EAD) of the European paper wasp (Polistes dominulus) worker antennae to the separated volatile compounds. Helium was used as the carrier gas, and the injector and detector temperatures were 250° C. and 300° C., respectively. Column temperature was 50° C. for 1 min, rising to 240° C. at 10° C./min, and then held for 10 min. The outlet for the EAD was held in a humidified air stream flowing at 0.5 m/sec over the antennal preparation. EAD recordings were made using silver wire-glass capillary electrodes filled with Beadle-Ephrussi Ringer on freshly cut antennae. The antennal signals were stored and analyzed on a PC equipped with a serial IDAC interface box and the program EAD ver. 2.5 (Syntech, Hilversum, The Netherlands). In addition, GC-EAD responses to a synthetic mixture (100 ng/μl each) containing nine known HIPVs including cis-3-hexen-1-ol, cis-3-hexenyl acetate, trans-β-ocimene, (E)-4,8-dimethyl-1,3,7-nonatriene, linalool, methyl salicylate, geranyl acetate, trans-β-caryophyllene and trans-β-farnesene were tested on the P. dominulus workers. (See FIG. 2.) The same chemicals were also tested on beneficial insect antennae from Chrysopa oculata, Myrmeleon crudelis, Podisus maculiventris, and Hippodarnia convergens. (See FIG. 6.) Antennally active peaks in the aeration samples were identified by GC-MS on an HP 6890 GC series coupled with an HP 5973 Mass Selective Detector using the same type of GC column and conditions as described above. Compounds were identified by comparison of retention times with those of authentic standards and with mass spectra of standards.

## CC=CC=CCOC(=O)CCC [2,4-hexadienyl butyrate]
[1]
  attraction: powerfully attractive

## CCCCC/C=C\C=C\C(=O)OCC [ethyl (E,Z)-2,4-decadienoate]
[2]
  attraction: attracted

## C=C/C(C)=C/CC=C(C)C [Ocimene, cis-ocimene]
[3]
  Total Paper Wasps P. aurifer: 17
[4]
  Total Yellowjacket Catches V. pensylvanica: 402
[5]
  Total Yellowjacket Catches V. acadica: 0
[6]
  Total Yellowjacket Catches V. vulgaris: 52
[7]
  effect on trap catches of yellowjackets in the top chambers: significant synergistic effect
[8]
  Total Yellowjacket Catches D. arenaria: 11
[9]
  Total Paper Wasps P. dominulus: 29
[10]
  Total Yellowjacket Catches V. atropilosa: 2
[11]
  EAD response of worker antennae: did not elicit significant EAD-responses
[12]
  Total Yellowjacket Catches V. consobrina: 0
[13]
  Total Yellowjacket Catches D. maculata: 17

## CCCCCCCOC(=O)CCC [heptyl butyrate]
[1]
  attraction: as attractive
[14]
  attraction: ineffective

## C=CC(=C)CC/C=C(\C)CCC=C(C)C [E-β-Farnesene, trans-β-farnesene]
[3]
  Total Paper Wasps P. aurifer: 13
[4]
  Total Yellowjacket Catches V. pensylvanica: 321
[5]
  Total Yellowjacket Catches V. acadica: 0
[6]
  Total Yellowjacket Catches V. vulgaris: 36
[8]
  Total Yellowjacket Catches D. arenaria: 10
[9]
  Total Paper Wasps P. dominulus: 29
[10]
  Total Yellowjacket Catches V. atropilosa: 1
[15]
  EAD response of worker antennae: No repeatable EAD-responses
[12]
  Total Yellowjacket Catches V. consobrina: 0
[13]
  Total Yellowjacket Catches D. maculata: 8

## C=C1CC/C=C(\C)CC[C@@H]2[C@@H]1CC2(C)C (relative stereo) [β-Caryophyllene, trans-β-caryophyllene]
[3]
  Total Paper Wasps P. aurifer: 12
[4]
  Total Yellowjacket Catches V. pensylvanica: 234
[5]
  Total Yellowjacket Catches V. acadica: 2
[6]
  Total Yellowjacket Catches V. vulgaris: 51
[8]
  Total Yellowjacket Catches D. arenaria: 5
[9]
  Total Paper Wasps P. dominulus: 35
[10]
  Total Yellowjacket Catches V. atropilosa: 1
[15]
  EAD response of worker antennae: No repeatable EAD-responses
[12]
  Total Yellowjacket Catches V. consobrina: 1
[13]
  Total Yellowjacket Catches D. maculata: 0
